The target of one data set is GSK3α (Homo sapiens (Human), UniProt P49840). Nature of the data set: pThr231 tau phosphorylation plate-based assay in HEK-huTau cells transfected with GSK3α. The class given is cell-based. The conditions noted are these: for pIC50: HEK-huTau cells transfected with human GSK3α, 10-point dose response, 2 hours, read-out: GSK3α IC50 (inhibition of pThr231); for selectivity for GSK3α over GSK3β: pThr231 HEK-huTau assay, GSK3β IC50 / GSK3α IC50. The procedure: (§1) HEK293 or SH-SY5Y cells were obtained from American Type Culture Collection (ATCC, Manassas, VA) and cultured in Dulbecco's modified Eagle's medium (DMEM) supplemented with 10% fetal bovine serum (FBS), 10 units/ml penicillin, and 10 μg/ml streptomycin (all reagents were purchased from Gibco, Waltham, MA). Cell cultures were maintained in a humidified 5% (v/v) CO2/air environment at 37° C. When the cells reached 50-80% confluence, they were transfected with a complex consisting of a 3:1 ratio of FuGENE 6 Transfection Reagent (Promega, Madison, WI) and plasmid DNA. Plasmid DNA was balanced out across reactions using an empty plasmid so that the same amount of DNA was added per well. This transfection complex was prepared following the manufacturers protocol and added directly to the cell media for 24 or 48 hours prior to lysis.
(§2) 293T cells stably expressing human 2N4R Tau were transfected with appropriate cDNA plasmids. 24 hours following transfection cells were treated with compound in a 10-point dose-response (from 1000× stocks of compound) and lysates harvested 2 hours later with cell extraction buffer (Life Technologies Cat #BN0001) or RIPA Buffer with Halt protease/phosphatase inhibitors added.
(§3) For pThr231 assay: Lysate was diluted 1:100 in assay buffer and Total Tau and pTau T231 was assessed by plate-based ELISA as per manufacturer instructions (MSD Cat #K15121D-1). Total fluorescence was measured using an Envison plate reader.
(§4) To test the potency and isoform selectivity of GSK3 small molecule inhibitors, HEK-huTau cells were transfected with plasmids containing either human GSK3α or GSK3β. Twenty-four hours after transfection, compounds were added at a 10-point dose response curve (at a range of 30 μM-3 nM) for a total of 2 hours, and cell lysates were probed for total tau and pThr231 using a plate-based assay.

For the next data set, the target named is human GSK3β (Homo sapiens (Human), UniProt P49841). Nature of the data set: pThr231 tau phosphorylation plate-based assay in HEK-huTau cells transfected with GSK3β. The format is cell-based. The conditions noted are these: for pIC50: HEK-huTau cells transfected with human GSK3β, 10-point dose response, 2 hours, read-out: GSK3β IC50 (inhibition of pThr231). How it is done: as §1, §2, §3, §4

The target of data set [1] is T1, NanoLuc-GSK3α (Homo sapiens (Human), UniProt P49840). Nature of the data set: NanoBRET live-cell target engagement assay, GSK3α. The conditions noted are these: HEK293T cells, Tracer-8 at EC50. The class given is cell-based. The procedure: (§5) HEK293T cells were transiently transfected with NanoLuc®-GSK3-alpha or NanoLuc®-GSK3-beta constructs using FuGene®-HD (Promega). Next day, the live cell NanoBRETTM target engagement assay was performed. […] Immediately prior to BRET measurements, NanoBRETTM Nano-Glo® Substrate and Extracellular NanoLuc® Inhibitor were added on cells and incubated for 2-3 minutes at room temperature. Donor emission at 450 nm and acceptor emission at 610 nm were measured using a EnVision plate reader. Raw BRET ratio values were calculated by dividing the acceptor emission value by the donor emission value for each sample. Raw BRET units were converted to milliBRET units (mBU) by multiplying each raw BRET value by 1000. mBU values for compound treatments were normalized to DMSO treatment. Ki values are calculated using the formula: Ki=(IC50)/(1+([Tracer]/EC50)). All experiments were performed as biological triplicates with three technical replications.
(§6) To further characterize the GSK3 inhibitor 837646, this compound was tested in a live-cell target engagement assay to investigate binding mode and residence time. […] In this assay, compound binding was quantified as loss of BRET signal from baseline due to competitive displacement of the tracer. […]
A general note: In BRET a luciferase serves as donor, and the signal depends on an acceptor being close.

The target in the next data set is NanoLuc-GSK3β (Homo sapiens (Human), UniProt P49841). In words: NanoBRET live-cell target engagement assay, GSK3β. The conditions noted are these: HEK293T cells, Tracer-8 at EC50. The class given is cell-based. The procedure: as §5, §6
In data set [2] the target is T1, NanoLuc-GSK3α. In words: NanoBRET residence time, GSK3α. The class given is cell-based. The conditions noted are these: inhibitor at 10× IC50, BRET every 5 min for 3 hours.
In data set [3] the test system is β-catenin nuclear translocation in SH-SY5Y cells. In words: β-catenin translocation assay. The class given is cell-based. The procedure: SH-SY5Y cells were seeded into a 96-well CellCarrier Ultra (Perkin Elmer) plate at a density of 1×10^5 cells/ml in complete DMEM. Sixteen hours following plating, media was changed to DMEM with 2% serum, and compound was added with a D300e Digital Dispenser (Tecan) for an incubation time of six hours. After compound incubation, media was removed, and cells were fixed with 4% PFA for 10 minutes at room temperature. Each well was washed three times with PBS-T and then blocked with buffer (1×PBS with 5% Normal Goat Serum and 0.3% Triton X-100) for 30 minutes at room temperature. β-Catenin primary antibody (Cell Signaling #8480) was added at 1:500 dilution in blocking buffer and the cells were allowed to incubate in primary overnight at 4° C. The following day, primary antibody was removed, each well was washed three times with PBS-T, and secondary antibody (1:2000 anti-rabbit AlexaFluor Plus 488 and 1:10,000 Hoechst 33342) was added and allowed to incubate for 60 minutes at room temperature protected from light. After one-hour, secondary antibody was removed and wells were washed four times with PBS-T before imaging on the Opera Phenix. Sixteen fields per well were imaged with a 20× water lens.
Images were quantified in the Columbus Image Data Storage and Analysis software. Cells were identified using the Hoechst nuclear stain to identify individual nuclei. Intensity of the nuclear stain was also used to determine cell viability (Viable cells <30% CV of Hoechst Intensity)

The target of data set [4] is GSK3α (GST-full length GSK3α) (Homo sapiens (Human), UniProt P49840). Nature of the data set: GSK3α TR-FRET kinase assay. The class given is biochemical. An outline of the steps: (§7)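 Readout: anti-pSer641 Tb antibody/streptavidin-d2 signal after 60 min, expressed as 665/615 ratio and fitted versus log concentration for IC50. Enzyme: 1 nM GST-GSK3 (α or β), compound-preincubated 30 min. Conditions: pH 7.5 Tris buffer with MgCl2, DTT, BSA; ATP at 4 or 2 μM, or 1 mM; 100 min.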
On the technique in general: Time-resolved FRET reads energy transfer from a long-lived donor to a nearby acceptor.

The target in data set [5] is GSK3b (GST-full length GSK3b) (Homo sapiens (Human), UniProt P49841). Nature of the data set: GSK3b TR-FRET kinase assay. The format is biochemical. An outline of the steps: as §7
Where [6] appears, read: 1 nM GSK3α, 4 μM ATP, 30 minute preincubation, Table 16, read-out: GSK3-A TR-FRET BIOCHEMICAL (TR-FRET).
The mark [7] stands for this setting: 1 nM GSK3b, 2 μM ATP, 30 minute preincubation, Table 16, read-out: GSK3-B TR-FRET BIOCHEMICAL (TR-FRET).

pIC50: −log10 of the molar value. Like-named read-outs stand apart in the source and are kept apart here.

Consider four molecules from patent US20250313563A1, “GLYCOGEN SYNTHASE KINASE 3 INHIBITORS AND USES THEREOF” (The Broad Institute, Inc., priority 2022, published 2025).

GSK3α, sequence (P49840 whole entry): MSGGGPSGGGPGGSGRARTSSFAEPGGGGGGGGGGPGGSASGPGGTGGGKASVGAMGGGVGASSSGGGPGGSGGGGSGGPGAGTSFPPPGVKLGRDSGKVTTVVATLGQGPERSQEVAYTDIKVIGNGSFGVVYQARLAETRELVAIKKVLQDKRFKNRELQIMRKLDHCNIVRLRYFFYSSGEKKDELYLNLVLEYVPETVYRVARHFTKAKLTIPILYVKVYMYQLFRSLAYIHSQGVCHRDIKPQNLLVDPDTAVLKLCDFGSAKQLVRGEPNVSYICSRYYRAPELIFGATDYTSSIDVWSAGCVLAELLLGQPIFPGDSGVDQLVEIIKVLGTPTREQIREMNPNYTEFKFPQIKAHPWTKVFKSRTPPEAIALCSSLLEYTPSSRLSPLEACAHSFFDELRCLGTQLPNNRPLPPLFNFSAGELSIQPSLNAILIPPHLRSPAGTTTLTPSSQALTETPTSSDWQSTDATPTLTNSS
T1 sequence (P49840 whole entry): as above
GSK3α (GST-full length GSK3α), sequence (P49840 whole entry): as above
GSK3b (GST-full length GSK3b), sequence (P49841 whole entry): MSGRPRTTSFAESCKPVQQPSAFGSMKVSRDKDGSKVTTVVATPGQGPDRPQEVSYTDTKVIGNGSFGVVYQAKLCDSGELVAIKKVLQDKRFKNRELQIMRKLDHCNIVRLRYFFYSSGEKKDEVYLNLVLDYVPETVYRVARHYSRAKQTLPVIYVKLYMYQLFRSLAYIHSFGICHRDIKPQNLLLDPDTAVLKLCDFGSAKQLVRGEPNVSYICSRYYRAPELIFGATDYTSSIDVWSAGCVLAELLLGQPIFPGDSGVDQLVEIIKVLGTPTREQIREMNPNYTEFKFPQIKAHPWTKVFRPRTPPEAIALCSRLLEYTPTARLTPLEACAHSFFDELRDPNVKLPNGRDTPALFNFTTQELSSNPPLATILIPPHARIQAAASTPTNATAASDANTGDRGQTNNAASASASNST
human GSK3β, sequence (P49841 whole entry): as above
NanoLuc-GSK3β, sequence (P49841 whole entry): as above

Consider `CCC1(c2cccc(-c3cn(C)nc3C)c2)C2=C(Nc3n[nH]cc31)C(F)C(C)(C)CC2=O` (single isomer, unassigned) [Compound 947651, 4-(3-(1,3-dimethyl-1H-pyrazol-4-yl)phenyl)-4-ethyl-8-fluoro-7,7-dimethyl-2,4,6,7,8,9-hexahydro-5H-pyrazolo[3,4-b]quinolin-5-one], for which the pIC50 at GSK3α is 7.21; on human GSK3β it was 5.85; in data set [4] (setting [6]), no less than 7.00; in data set [4] (GSK3-A (TR-FRET 1 mM ATP), GMean, IC50, 1 mM ATP, geometric mean), no less than 7.00; in data set [5] (setting [7]) it was no less than 7.00; in data set [5] (GSK3-B (TR-FRET 1 mM ATP), GMean, IC50, 1 mM ATP, geometric mean) it was 6.00 to 7.00. Moreover, the “selectivity for GSK3α over GSK3β” value at GSK3α was determined as 23 fold. Further, the “binding mode (competitive displacement of tracer), GSK3α” value at NanoLuc-GSK3α [1] is “ATP-competitive and direct GSK3 binders”. For the same molecule, the “binding mode (competitive displacement of tracer), GSK3β” value on NanoLuc-GSK3β was “ATP-competitive and direct GSK3 binders”. Besides, the “residence time at GSK3α” value on NanoLuc-GSK3α [2] was “significantly longer residence times”. Further, in data set [3] (SH-SY5Y cells), the “β-catenin nuclear translocation (in words)” value was “nuclear translocation of β-catenin occurred at concentrations in which both GSK3 paralogs are being inhibited”.

In turn, `N#Cc1ccc2[nH]c(O)c(-c3ccc(CN4CCOCC4)cn3)c2c1` [AZ1080, AZD1080, reference compound] gave a pIC50 in data set [3] (Homo sapiens, SH-SY5Y cells, 6 hours) of 5.52.

For the molecule `CCC1(c2cccc(-c3c(F)cncc3OC)c2)C2=C(Nc3n[nH]cc31)C(F)C(C)(C)CC2=O` (stereo not shown) [Compound 948546, 4-ethyl-8-fluoro-4-(3-(3-fluoro-5-methoxypyridin-4-yl)phenyl)-7,7-dimethyl-2,4,6,7,8,9-hexahydro-SH-pyrazolo[3,4-b]quinolin-5-one], the pIC50 at GSK3α was 7.02; on human GSK3β, 6.00; in data set [4] (setting [6]), no less than 7.00; in data set [4] (read-out: GSK3-A (TR-FRET 1 mM ATP), GMean, IC50, 1 mM ATP, geometric mean), no less than 7.00; in data set [5] (setting [7]), no less than 7.00; in data set [5] (read-out: GSK3-B (TR-FRET 1 mM ATP), GMean, IC50, 1 mM ATP, geometric mean) it was 6.00 to 7.00. Also, on GSK3α, the “selectivity for GSK3α over GSK3β” value is 11 fold. The “binding mode (competitive displacement of tracer), GSK3α” value at NanoLuc-GSK3α [1] is “ATP-competitive and direct GSK3 binders”. In addition, on NanoLuc-GSK3β, the “binding mode (competitive displacement of tracer), GSK3β” value is “ATP-competitive and direct GSK3 binders”. For the same molecule, at NanoLuc-GSK3α [2], the “residence time at GSK3α” value is given as “significantly longer residence times”. Also, the “β-catenin nuclear translocation (in words)” value in data set [3] (SH-SY5Y cells) is “nuclear translocation of β-catenin occurred at concentrations in which both GSK3 paralogs are being inhibited”.

Turning to `CC[C@@]1(c2ccccc2)C2=C(CC(C)(C)CC2=O)Nc2[nH]ncc21` [BRD0705, reference compound], the “toxicity of compound in HEK-huTau assay (doses)” value on human GSK3β (GSK3β IC50 undetermined due to toxicity) is greater than 30 µM. The “window between potency on tau phosphorylation by GSK3α and concentrations affecting β-catenin stabilization” value in data set [3] (HEK-huTau GSK3α vs SH-SY5Y β-catenin) was greater than 5 fold.
